For one assay, the target named is T1, human PKCθ full length enzyme (Homo sapiens, UniProt Q04759).
T1 construct: human PKCθ full length enzyme (Panvera Cat# P2996); purchased Panvera P2996
T1 sequence (Q04759 whole entry): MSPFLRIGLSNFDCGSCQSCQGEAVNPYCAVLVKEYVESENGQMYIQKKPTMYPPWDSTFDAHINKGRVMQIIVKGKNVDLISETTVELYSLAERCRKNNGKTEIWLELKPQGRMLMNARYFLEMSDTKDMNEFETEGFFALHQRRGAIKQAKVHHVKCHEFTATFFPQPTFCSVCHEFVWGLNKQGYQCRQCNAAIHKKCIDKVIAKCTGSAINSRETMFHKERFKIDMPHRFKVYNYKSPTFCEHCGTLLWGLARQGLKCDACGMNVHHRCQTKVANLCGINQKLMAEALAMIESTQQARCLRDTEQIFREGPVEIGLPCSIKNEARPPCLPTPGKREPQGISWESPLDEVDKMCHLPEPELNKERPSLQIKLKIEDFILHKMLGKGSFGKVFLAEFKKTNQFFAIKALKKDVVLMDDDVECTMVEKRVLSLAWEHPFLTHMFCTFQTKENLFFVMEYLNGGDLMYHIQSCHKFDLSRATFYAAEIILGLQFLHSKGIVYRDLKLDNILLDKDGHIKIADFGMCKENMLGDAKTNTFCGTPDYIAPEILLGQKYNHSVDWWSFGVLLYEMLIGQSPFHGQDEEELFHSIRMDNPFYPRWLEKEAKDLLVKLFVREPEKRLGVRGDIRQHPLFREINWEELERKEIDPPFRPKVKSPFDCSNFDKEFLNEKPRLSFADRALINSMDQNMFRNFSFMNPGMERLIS
In words: PKCθ IMAP assay (fluorescence polarization). The class given is biochemical.
Settings: not given
How it is done:
The reaction buffer was prepared by diluting the 5× stock reaction buffer and adding DTT to obtain a concentration of 3.0 mM. […] The final concentration of compound was 2× and 10% DMSO. DMSO was added to the rest of the master mix to increase the concentration to 10%. 10 μl of the master mix containing 10% DMSO was added to the rest of the wells on the plate except the 2nd column. 20 μl was transferred from the first column to the 2nd column. The compounds were serially diluted in 2:1 ratio starting from the 2nd column. A 2× ([…]) PKCθ solution was made in the reaction buffer. 10 μl of the PKCθ solution was added to every well to achieve these final concentrations: PKCθ—1 nM; ATP—6 μM; peptide—100 nM; DMSO—5%. Samples were incubated for 25 minutes at room temperature. The binding reagent was prepared by diluting the beads in 1× binding buffer to 800:1. 50 μl of the binding reagent was added to every well and incubated for 20 minutes. FP was measured using Envision2100 (PerkinElmer Life Sciences). Wells with no ATPs and wells with no enzymes were used as controls.
On the technique in general: Fluorescence polarisation rises when a labelled molecule tumbles more slowly, as on binding a larger partner.
For `COc1ccc(-c2cncc(C#N)c2-c2ccc3[nH]ccc3c2)cc1OC` [Compound 221, 5-(3,4-dimethoxyphenyl)-4-(1H-indol-5-yl)nicotinonitrile], the IC50 (commonly the concentration that gives 50% inhibition) amounted to 1.75 µM.

The assay is the same for the next values; noted with them: human PKCθ full length enzyme, IMAP; average value; read-out: IC50 PKCθ IMAP.
As for `Cc1c(Nc2c(C#N)cncc2-c2ccc([N+](=O)[O-])cc2)ccc2[nH]ccc12` [Compound 570, 4-[(4-methyl-1H-indol-5-yl)amino]-5-(4-nitrophenyl)nicotinonitrile], the IC50 is 0.016 µM.

On to `Cc1c(Nc2c(C#N)cncc2-c2cc3cc(CN4CCN(C(=O)OC(C)(C)C)CC4)ccc3o2)ccc2[nH]ccc12` [Compound 536, tert-butyl 4-[(2-{5-cyano-4-[(4-methyl-1H-indol-5-yl)amino]pyridin-3-yl}-1-benzofuran-5-yl)methyl]piperazine-1-carboxylate], for which the IC50 worked out at 0.058 µM.

For `CCCCNC(=O)c1ccc(-c2cccc(-c3cncc(C#N)c3Nc3ccc4[nH]ccc4c3)c2)cc1` [Compound 197, N-butyl-3′-[5-cyano-4-(1H-indol-5-ylamino)pyridin-3-yl]biphenyl-4-carboxamide], the half-inhibitory concentration (IC50) stood at 0.19 µM.

Take `COCCOc1cccc(-c2cncc(C#N)c2Nc2cccc3[nH]ccc23)c1` [Compound 164, 4-(1H-indol-4-ylamino)-5-[3-(2-methoxyethoxy)phenyl]nicotinonitrile]: the IC50 stood at 0.03 µM.

Consider `N#Cc1cncc(-c2cccc(-c3ccc(CN4CCCCC4)s3)c2)c1Nc1ccc2[nH]ccc2c1` [Compound 186, 4-(1H-indol-5-ylamino)-5-{3-[5-(piperidin-1-ylmethyl)-2-thienyl]phenyl}nicotinonitrile], for which the IC50 turned out to be 0.14 µM.

For the compound `COc1ccc(-c2cncc(C#N)c2Nc2ccc3[nH]ccc3c2)cc1OCCNCc1ccccn1` [Compound 241, 4-(1H-indol-5-ylamino)-5-(4-methoxy-3-{2-[(pyridin-2-ylmethyl)amino]ethoxy}phenyl)nicotinonitrile], the IC50 stood at 0.08 µM.

For the compound `Cc1cc2[nH]ccc2cc1Nc1c(C#N)cncc1-c1ccc(OCCN2CCC(N3CCCC3)CC2)cc1` [Compound 506, 4-[(6-methyl-1H-indol-5-yl)amino]-5-{4-[2-(4-pyrrolidin-1-ylpiperidin-1-yl)ethoxy]phenyl}nicotinonitrile], the IC50 is 0.083 µM.

As to `Cc1c(Nc2c(C#N)cncc2-c2cc3ccccc3o2)cc(Cl)c2[nH]ccc12` [Compound 531, 5-(1-benzofuran-2-yl)-4-[(7-chloro-4-methyl-1H-indol-5-yl)amino]nicotinonitrile], the half-maximal inhibitory concentration (IC50) worked out at 0.02 µM.

Regarding `Cc1c(Nc2c(C#N)cncc2-c2ccc(OCCNCc3cccnc3)cc2)ccc2[nH]ccc12` [Compound 433, 4-[(4-methyl-1H-indol-5-yl)amino]-5-(4-{2-[(pyridin-3-ylmethyl)amino]ethoxy}phenyl)nicotinonitrile], the IC50 stood at 0.01 µM.

With `N#Cc1cncc(-c2cc3cc(C4OCCCO4)ccc3o2)c1Nc1cccc2[nH]ccc12` [Compound 369, 5-[5-(1,3-dioxan-2-yl)-1-benzofuran-2-yl]-4-(1H-indol-4-ylamino)nicotinonitrile], the IC50 is 0.04 µM.

Take `Cc1c(Nc2c(C#N)cncc2-c2ccc(CN3CCS(=O)(=O)CC3)o2)ccc2[nH]ccc12` [Compound 487, 5-{5-[(1,1-dioxidothiomorpholin-4-yl)methyl]-2-furyl}-4-[(4-methyl-1H-indol-5-yl)amino]nicotinonitrile]: the IC50 was found to be 0.016 µM.

Turning to `Cc1c(Nc2c(C#N)cncc2-c2cc3cc(OCCN4CCN(C)CC4)ccc3o2)ccc2[nH]ccc12` [Compound 438, 4-[(4-methyl-1H-indol-5-yl)amino]-5-{5-[2-(4-methylpiperazin-1-yl)ethoxy]-1-benzofuran-2-yl}nicotinonitrile], the IC50 amounted to 0.004 µM.

Turning to `Cc1c(Nc2c(C#N)cncc2-c2ccc(OCCNCc3ccncc3)cc2)ccc2[nH]ccc12` [Compound 434, 4-[(4-methyl-1H-indol-5-yl)amino]-5-(4-{2-[(pyridin-4-ylmethyl)amino]ethoxy}phenyl)nicotinonitrile], the IC50 worked out at 0.014 µM.

For `COc1cc(-c2cncc(C#N)c2Nc2ccc3[nH]ccc3c2C)ccc1OCCN1CCCCC1` [Compound 376, 5-[3-methoxy-4-(2-piperidin-1-ylethoxy)phenyl]-4-[(4-methyl-1H-indol-5-yl)amino]nicotinonitrile], the IC50 is 0.02 µM.

Regarding `Cc1c(Nc2c(C#N)cncc2-c2cc3cc(CN4CCCCC4)ccc3o2)ccc2[nH]ccc12` [Compound 461, 4-[(4-methyl-1H-indol-5-yl)amino]-5-[5-(piperidin-1-ylmethyl)-1-benzofuran-2-yl]nicotinonitrile], the IC50 was found to be 0.001 µM.

In the case of `Cc1c(Nc2c(C#N)cncc2-c2ccc(OCCCl)cc2)cc(Cl)c2[nH]ccc12` [Compound 533, 5-[4-(2-chloroethoxy)phenyl]-4-[(7-chloro-4-methyl-1H-indol-5-yl)amino]nicotinonitrile], the IC50 came to 0.051 µM.

Consider `COCCNC(=O)c1ccc(-c2cncc(C#N)c2Nc2cccc3[nH]ccc23)cc1` [Compound 330, 4-[5-cyano-4-(1H-indol-4-ylamino)pyridin-3-yl]-N-(2-methoxyethyl)benzamide], for which the IC50 came out at 0.13 µM.

For `CN1CCN(CCOc2ccc(-c3cncc(C#N)c3Nc3ccc4[nH]ccc4c3)cc2)CC1` [Compound 520, 4-(1H-indol-5-ylamino)-5-{4-[2-(4-methylpiperazin-1-yl)ethoxy]phenyl}nicotinonitrile], the IC50 is 0.073 µM.

In the case of `Cc1c(Nc2c(C#N)cncc2-c2ccncc2)ccc2[nH]ccc12` [Compound 467, 4-[(4-methyl-1H-indol-5-yl)amino]-3,4′-bipyridine-5-carbonitrile], the IC50 came out at 0.036 µM.

As for `COc1ccc(-c2cncc(C#N)c2NCCC2CCN(C)CC2)cc1OC` [Compound 447, 5-(3,4-dimethoxyphenyl)-4-{[2-(1-methylpiperidin-4-yl)ethyl]amino}nicotinonitrile], the IC50 was found to be 1.93 µM.

On to `Cc1c(Nc2c(C#N)cncc2-c2cccc(OCCCCCl)c2)ccc2[nH]ccc12` [Compound 501, 5-[3-(4-chlorobutoxy)phenyl]-4-[(4-methyl-1H-indol-5-yl)amino]nicotinonitrile], for which the IC50 is 0.089 µM.

Turning to `COc1ccc(-c2cncc(C#N)c2Nc2ccc3[nH]ccc3c2)cc1OCCN1CCSCC1` [Compound 233, 4-(1H-indol-5-ylamino)-5-[4-methoxy-3-(2-thiomorpholin-4-ylethoxy)phenyl]nicotinonitrile], the IC50 came to 0.18 µM.

Regarding `COCCOc1cccc(-c2cncc(C#N)c2Nc2ccc3[nH]ccc3c2C)c1` [Compound 483, 5-[3-(2-methoxyethoxy)phenyl]-4-[(4-methyl-1H-indol-5-yl)amino]nicotinonitrile], the IC50 stood at 0.036 µM.

Turning to `COc1cccc(Cl)c1-c1cncc(C#N)c1Nc1ccc2[nH]ccc2c1C` [Compound 375, 5-(2-chloro-6-methoxyphenyl)-4-[(4-methyl-1H-indol-5-yl)amino]nicotinonitrile], the IC50 is 0.15 µM.

With `Cc1c(Nc2c(C#N)cncc2-c2cccc(-c3cccs3)c2)ccc2[nH]ccc12` [Compound 304, 4-[(4-methyl-1H-indol-5-yl)amino]-5-[3-(2-thienyl)phenyl]nicotinonitrile], the IC50 was determined as 0.11 µM.

For `N#Cc1cncc(-c2cccc(CN)c2)c1Nc1cccc2[nH]ccc12` [Compound 328, 5-[3-(aminomethyl)phenyl]-4-(1H-indol-4-ylamino)nicotinonitrile], the IC50 worked out at 0.02 µM.

For the compound `Cc1c(Nc2c(C#N)cncc2-c2cc3cc(CN4CCN(S(C)(=O)=O)CC4)ccc3o2)ccc2[nH]ccc12` [Compound 538, 4-[(4-methyl-1H-indol-5-yl)amino]-5-(5-{[4-(methylsulfonyl)piperazin-1-yl]methyl}-1-benzofuran-2-yl)nicotinonitrile], the IC50 came out at 0.015 µM.

On to `Cc1c(Nc2c(C#N)cncc2-c2cnc(N3CCCCC3)nc2)ccc2[nH]ccc12` [Compound 510, 4-[(4-methyl-1H-indol-5-yl)amino]-5-(2-piperidin-1-ylpyrimidin-5-yl)nicotinonitrile], for which the IC50 is 0.3 µM.

On to `Cc1c(Nc2c(C#N)cncc2-c2ccc(OCCNC3CCN(C)CC3)cc2)ccc2[nH]ccc12` [Compound 420, 4-[(4-methyl-1H-indol-5-yl)amino]-5-(4-{2-[(1-methylpiperidin-4-yl)amino]ethoxy}phenyl)nicotinonitrile], for which the IC50 came to 0.003 µM.

Consider `Cc1csc(-c2cccc(-c3cncc(C#N)c3Nc3ccc4[nH]ccc4c3)c2)c1` [Compound 139, 4-(1H-indol-5-ylamino)-5-[3-(4-methyl-2-thienyl)phenyl]nicotinonitrile], for which the IC50 turned out to be 0.25 µM.

As to `Cc1c(Nc2c(C#N)cncc2-c2ccccn2)ccc2[nH]ccc12` [Compound 565, 4′-[(4-methyl-1H-indol-5-yl)amino]-2,3′-bipyridine-5′-carbonitrile], the IC50 was 0.022 µM.

For `COCCNCCOc1cc(-c2cncc(C#N)c2Nc2ccc3[nH]ccc3c2)ccc1OC` [Compound 182, 4-(1H-indol-5-ylamino)-5-(4-methoxy-3-{2-[(2-methoxyethyl)amino]ethoxy}phenyl)nicotinonitrile], the IC50 stood at 0.12 µM.

Take `N#Cc1cncc(-c2cc3cc(CO)ccc3s2)c1Nc1cccc2[nH]ccc12` [Compound 285, 5-[5-(hydroxymethyl)-1-benzothien-2-yl]-4-(1H-indol-4-ylamino)nicotinonitrile]: the IC50 was determined as 0.004 µM.

The values above are taken from patent publication US7781591B2, “Substituted 3-cyanopyridines as protein kinase inhibitors” (Wyeth LLC, priority 2006, dated 2010).
